Assay results published in US10098894B2, “Transdermal cream” (TherapeuticsMD, Inc., priority 2014, dated 2018).
≈ marks a conversion by molar mass, not a printed value. Where two headings read alike, the source gives them in different places. Blank lines part the entries; values can stand above or below the compound they belong to.

Experiments:
[1] = test system: endometrium and vagina in ovariectomized rats; assay: Estradiol-induced endometrium proliferation in ovariectomized rats (uterine weight, histology, histomorphometry); type: in vivo, rat; details: for Uterine weight compared to estradiol-only treatment group: Days 4-8, with estradiol
Protocol: Thirty-two 8-week-old, female, Crl:CD® rats underwent ovariectomy 2 weeks prior to the start of the study. Rats were randomly assigned to 4 groups of 8 rats each. Three of the groups received 3 μg/kg/day estradiol, subcutaneously (SC), for 8 days as well as a placebo cream, 10 mg/kg/day progesterone, SC, or 3.125 mg/day progesterone transdermally beginning on Day 4. The fourth group received saline, SC for 8 days and placebo cream beginning on Day 4. Two hours after the final dose on Day 8, the rats were humanely euthanized, uterine weights were measured, and the vagina and distal portions of the uterine horns were fixed and processed for histology and computer-aided morphometry. Study parameters are outlined in Table 22.

[2] = Exposure, tissue distribution and metabolite profile (progesterone, ALLO, ALLO-sulfate in plasma, salivary gland, uterus) in ovariectomized rats; type: in vivo; details: for Kp at 2 h: female, Crl:CD, uterus/plasma, read-out: Ratio of progesterone levels in the uterus to plasma; for Mean progesterone level in plasma / Mean progesterone level in salivary gland / Mean progesterone level in uterus: 2 hours after final dose Day 8
Protocol: Thirty-two 8-week-old, female, Crl:CD® rats underwent ovariectomy 2 weeks prior to study start. […] Plasma and tissue homogenates were analyzed for progesterone, ALLO, and ALLO-sulfate using LC-MS/MS.

[3] = Progesterone solubility study in different solvent systems; type: physicochemical; details: thermodynamic from solid, room temperature, visual
Protocol: Solubility of progesterone was determined on a visual basis by adding progesterone incrementally to a certain quantity of solvent at room temperature until a supersaturated solution was formed.

[4] = as above; type: physicochemical; details: oil or lipid, thermodynamic from solid; in CAPRYOL 90; solubility determined by HPLC

Structure (SMILES): C[C@]12CC[C@@H]3c4ccc(O)cc4CC[C@H]3[C@@H]1CC[C@@H]2O [estradiol, (17β)-estra-1,3,5(10)-triene-3,17-diol]
Effect of unopposed estradiol treatment on the uterus (organ weight, histology) ([1]; 3 μg/kg/day SC, 8 days): hypertrophy

Kp at 2 h ([2]; 10 mg/kg/day, rat, SC route): 7.3 | Kp at 2 h ([2]; topical, 3.13 mg/rat/day, transdermal route): 12 | Mean progesterone level in plasma ([2]; rat, SC administration): 5.4 ng/mL/mg dose | Mean progesterone level in salivary gland ([2]; rat, SC administration): 5.9 ng/mL/mg dose | Mean progesterone level in uterus ([2]; rat, SC administration): 39 ng/mL/mg dose | Levels of ALLO in the plasma, comparison of both routes of administration ([2]; rat, SC vs topical): similar | Sum of plasma levels of ALLO and ALLO-sulfate relative to plasma level of progesterone ([2]; rat, after topical dosing): equivalent | Mean tissue levels of ALLO and ALLO-sulfate, SC administration compared to topical administration ([2]; rat, all instances): higher | Mean progesterone level in plasma ([2]; rat, topical administration (Table 16 formulation)): 2.0 ng/mL/mg dose | Mean progesterone level in salivary gland ([2]; rat, topical administration): 10 ng/mL/mg dose | Mean progesterone level in uterus ([2]; rat, topical administration): 24 ng/mL/mg dose | solubility ([3]; aqueous with cosolvent or surfactant or cyclodextrin, in 5% SLS): 6.6 mg/mL (≈ 21 mM) | solubility ([3]; oil or lipid, in CAPRYOL PGMC): 82 mg/mL (≈ 261 mM) | solubility ([3]; oil or lipid, in GLYCEROX 767): 22.2 mg/mL (≈ 70.6 mM) | solubility ([3]; oil or lipid, in LABRAFAC PG): 41 mg/mL (≈ 130 mM) | solubility ([3]; oil or lipid, in LAUROGLYCOL 90): 90.2 mg/mL (≈ 287 mM) | solubility ([3]; oil or lipid, in LAUROGLYCOL FCC): 60 mg/mL (≈ 191 mM) | solubility ([3]; oil or lipid, in MIGLYOL 812 + D-L α Tocopherol Care (85:15)): 38.2 mg/mL | solubility ([3]; oil or lipid, in MIGLYOL 812 + D-L α Tocopherol Care (95:5)): 20.1 mg/mL | solubility ([3]; oil or lipid, in MIGLYOL 812 + LABRAFAC PG (50:50)): 25.7 mg/mL | solubility ([3]; oil or lipid, in MIGLYOL 812 + LAUROGLYCOL 90 (25:75)): 47 mg/mL | solubility ([3]; oil or lipid, in MIGLYOL 812 + LAUROGLYCOL 90 (50:50)): 58.9 mg/mL | solubility ([3]; oil or lipid, in MIGLYOL 812 + TRANSCUTOL (92.5:7.5)): 40.2 mg/mL | solubility ([3]; oil or lipid, in MIGLYOL 812 + TRANSCUTOL (95:5)): 40.5 mg/mL | solubility ([3]; oil or lipid, in MIGLYOL 812 + Vitamin E TPGS (91:9)): 45.2 mg/mL | solubility ([3]; oil or lipid, in MIGLYOL 812): 25 mg/mL (≈ 79.5 mM) | solubility ([3]; oil or lipid, in MIGLYOL 829): 41.3 mg/mL (≈ 131 mM) | solubility ([3]; oil or lipid, in MIGLYOL 840): 41.7 mg/mL (≈ 133 mM) | solubility ([3]; oil or lipid, in Oleic Acid): 62.2 mg/mL (≈ 198 mM) | solubility ([3]; oil or lipid, in Oleyl Alcohol): 41.2 mg/mL (≈ 131 mM) | solubility ([3]; organic solvent or mixture, in Absolute Alcohol): 57 mg/mL (≈ 181 mM) | solubility ([3]; organic solvent or mixture, in Dimethyl Isosorbide): 92 mg/mL (≈ 293 mM) | solubility ([3]; organic solvent or mixture, in Propylene Glycol): 10.5 mg/mL (≈ 33.4 mM) | solubility ([3]; organic solvent or mixture, in TRANSCUTOL): 60.3 mg/mL (≈ 192 mM) | solubility ([3]; organic solvent or mixture, in d-Limonene + TRANSCUTOL (25:75)): 95.6 mg/mL | solubility ([3]; organic solvent or mixture, in d-Limonene + TRANSCUTOL (40:60)): 102 mg/mL | solubility ([3]; organic solvent or mixture, in d-Limonene + TRANSCUTOL (50:50)): 100 mg/mL | solubility ([3]; organic solvent or mixture, in d-Limonene): 204 mg/mL (≈ 649 mM) | solubility [4]: 112 mg/mL (≈ 355 mM)
Structure (SMILES): CC(=O)[C@H]1CC[C@H]2[C@@H]3CCC4=CC(=O)CC[C@]4(C)[C@H]3CC[C@]12C [progesterone, pregn-4-ene-3,20-dione]
Endometrial gland density, transdermal as compared to SC progesterone [1]: significant increase | Uterine weight compared to estradiol-only treatment group ([1]; progesterone 3.125 mg/day transdermally (formulation of Table 16)): pronounced reduction | Uterine weight compared to estradiol-only treatment group ([1]; progesterone 10 mg/kg/day SC): pronounced reduction | Endometrial gland density compared to unopposed estradiol ([1]; progesterone SC): significant increase | Luminal epithelial cell thickness compared to unopposed estradiol ([1]; progesterone SC): significant reduction | Estrogen-specific cellular aspects in uterus and vagina (histology) ([1]; progesterone SC with estradiol): not detected | Endometrial gland density compared to unopposed estradiol ([1]; progesterone transdermally): significant increase | Luminal epithelial cell thickness compared to unopposed estradiol ([1]; progesterone transdermally): significant reduction | Estrogen-specific cellular aspects in uterus and vagina (histology) ([1]; progesterone transdermally with estradiol): not detected
